Broadly, the inhibition is the percentage by which the read-out fell short of the control.

These results are taken from US8067456B2 (AEterna Zentaris GmbH, priority 2004, dated 2011).

For data set [1], the system named is LHRH-stimulated LH secretion from rat pituitary cells. The data set is described as follows: Inhibition of LHRH-induced LH secretion from rat pituitary cells in vitro. Format: cell-based. The following applies: LHRH 10 nM, 3 hours. How it is done:
The LH concentration in cell culture supernatants was measured using the rat luteinizing hormone (rLH) enzyme immunoassay (EIA) system ELISA (RPN 2562) from Amersham Pharmacia Biotech. All other chemicals used were from commercial sources in the highest purity available.
Juvenile male Wistar rats (Harlan Winkelmann, Germany) were sacrificed by decapitation, and the pituitaries were removed and taken up in Hanks' buffer (HBSS) with 0.3% BSA and 10 mM HEPES (pH 7.4). Pituitaries from 20 rats were required to carry out one experiment. The cells of the anterior lobe of the pituitary were separated from the remaining tissue by incubation in Hanks' buffer with 10 mM HEPES (pH 7.4), 0.3% BSA, 1 mg/ml hyaluronidase (type VIII), 1 mg/ml soybean trypsin inhibitor, 10 μg/ml DNAsel and 1 mg/ml papain at 37° C. for 30 minutes A sterile Pasteur pipette was used to disperse the cells, and they were subsequently pelleted by centrifugation. The cells were seeded in a density of 2.5×10^5 cells/well of a collagen-coated 48-well plate (Becton Dickinson) in DMEM medium (Invitrogen Life Technologies, Germany) with 10% fetal calf serum (FCS; Invitrogen Life Technologies, Germany), 10 mill nonessential amino acids and 10 mill Pen/Strep (penicillin/streptomycin).
The medium was changed after incubation at 37° C., 5% CO2 and 95% humidity for 48 h. The medium was replaced by LHRH-containing (10 nM) medium or medium with LHRH (10 nM) and test substance in the concentration indicated (table). After a further incubation for 3 hours, the cell supernatant was harvested and frozen at −20° C. The LH content was determined by means of ELISA in triplicate determination in accordance with the manufacturer's (Amersham Pharmacia Biotech) instructions.
In the following table, “% Inhibition” describes the quotient of LHRH-stimulated LH secretion with (“LH (ng/ml)” and without the addition of the test substance. The values originate from different, independent experiments.

Data set [2] in a line: Metabolic stability in rat liver microsomes. Format: in vitro ADME. The following applies: 1 μM, 37° C., NADPH. How it is done:
The metabolic stability in relation to liver microsomes (species human, rat) was determined in accordance with the following description: the substances were incubated at a test concentration of 1 […] An HPLC MS/MS method was subsequently used to quantify the unmetabolized amount of starting compound relative to 100%.
In general terms: Microsomes from liver hold many membrane-bound enzymes, among them those of drug oxidation.

Turning to `CCC(C)[C@H](NC(=O)OCc1ccccc1)C(=O)N[C@]1(C(=O)N[C@H](C(N)=S)C(C)CC)CCc2[nH]c3c(Cl)cc(Cl)cc3c2C1` (stereo partly drawn) [Compound 7, benzyl {(S)-1-[(R)-6,8-dichloro-3-((S)-2-methyl-1-thiocarbamoylbutylcarbamoyl)-2,3,4,9-tetrahydro-1H-carbazol-3-ylcarbamoyl]-2-methylbutyl}carbamate], in data set [1] (Rattus norvegicus, test substance 3.3 × 10^−8 M, read-out: % Inhibition), the inhibition at 0.033 µM worked out at 83%. Besides, the inhibition at 0.0033 µM in data set [1] (Rattus norvegicus, test substance 3.3 × 10^−9 M) was determined as 43%. Besides, the “LH (ng/ml) ± SD” value in data set [1] (test substance 3.3 × 10^−8 M) is 79.9 ± 15.0 ng/mL; in data set [1] (test substance 3.3 × 10^−9 M), 194.0 ± 13.2 ng/mL. Further, the recovery at 1 μM in data set [2] was 78%.
